Source: ChEMBL document CHEMBL1153335, “Incorporation of neutral C-terminal residues in 3-amidinophenylalanine-derived matriptase inhibitors” (Bioorg Med Chem Lett, 2009)

What was measured:
[1] = target: Urokinase-type plasminogen activator (Homo sapiens, UniProt P00749); experiment: Inhibition of uPA
[2] = target: Plasminogen (Homo sapiens, UniProt P00747); experiment: Inhibition of plasmin
[3] = target: T1, Suppressor of tumorigenicity 14 protein (Homo sapiens, UniProt Q9Y5Y6); experiment: Inhibition of matriptase
T1 sequence (Q9Y5Y6 whole entry): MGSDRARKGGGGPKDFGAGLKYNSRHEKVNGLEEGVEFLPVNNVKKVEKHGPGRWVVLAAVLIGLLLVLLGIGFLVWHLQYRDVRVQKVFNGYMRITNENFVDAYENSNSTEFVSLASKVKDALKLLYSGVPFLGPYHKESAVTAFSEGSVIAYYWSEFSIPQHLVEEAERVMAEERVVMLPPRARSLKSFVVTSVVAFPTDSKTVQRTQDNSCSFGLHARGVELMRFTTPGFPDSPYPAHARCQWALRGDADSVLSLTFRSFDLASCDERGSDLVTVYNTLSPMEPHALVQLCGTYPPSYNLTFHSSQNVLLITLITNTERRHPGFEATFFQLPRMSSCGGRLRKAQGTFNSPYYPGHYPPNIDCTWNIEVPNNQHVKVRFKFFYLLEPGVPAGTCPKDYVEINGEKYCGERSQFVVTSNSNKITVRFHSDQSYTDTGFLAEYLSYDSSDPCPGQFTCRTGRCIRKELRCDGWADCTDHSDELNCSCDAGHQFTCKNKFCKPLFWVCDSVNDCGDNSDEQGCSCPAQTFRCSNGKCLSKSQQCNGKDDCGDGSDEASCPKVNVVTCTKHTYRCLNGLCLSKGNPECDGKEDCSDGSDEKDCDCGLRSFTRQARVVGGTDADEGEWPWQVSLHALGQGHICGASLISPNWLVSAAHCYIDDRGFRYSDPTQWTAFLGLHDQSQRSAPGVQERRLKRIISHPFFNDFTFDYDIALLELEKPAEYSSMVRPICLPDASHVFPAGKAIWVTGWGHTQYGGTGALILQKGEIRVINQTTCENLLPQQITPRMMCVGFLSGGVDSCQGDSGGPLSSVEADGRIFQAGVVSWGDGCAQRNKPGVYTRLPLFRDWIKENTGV

[4] = target: Coagulation factor X (Homo sapiens, UniProt P00742); experiment: Inhibition of factor 10a
Chain of Coagulation factor X (P00742 41-179 limits assumed): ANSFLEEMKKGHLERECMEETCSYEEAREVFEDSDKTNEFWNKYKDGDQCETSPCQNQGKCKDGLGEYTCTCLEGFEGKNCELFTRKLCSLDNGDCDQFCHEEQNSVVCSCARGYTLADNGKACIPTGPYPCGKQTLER
Chain of Coagulation factor X (P00742 235-488 limits assumed): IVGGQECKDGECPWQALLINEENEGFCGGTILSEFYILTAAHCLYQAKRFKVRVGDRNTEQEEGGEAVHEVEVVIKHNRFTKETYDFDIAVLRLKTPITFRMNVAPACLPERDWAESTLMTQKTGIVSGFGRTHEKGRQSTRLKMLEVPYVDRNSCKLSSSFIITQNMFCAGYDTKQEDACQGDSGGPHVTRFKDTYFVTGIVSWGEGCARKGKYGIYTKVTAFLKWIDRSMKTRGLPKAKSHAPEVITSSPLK

[5] = target: Prothrombin (Homo sapiens, UniProt P00734); experiment: Inhibition of thrombin
[6] = test system: Rattus norvegicus; experiment: Cmax in rat assessed as melagatran level at 20 mg/kg, po after 120 mins; format: ADME, organism-based; parameters: dose 20 mg/kg, route oral; details: in vivo, 2 h
[7] = test system: Rattus norvegicus; experiment: Cmax in rat assessed as N-hydroxy-melagatran level at 20 mg/kg, po after 120 mins; format: ADME, organism-based; parameters: dose 20 mg/kg, route oral; details: in vivo, 2 h

Chain of Plasminogen (P00747 97-580 limits assumed): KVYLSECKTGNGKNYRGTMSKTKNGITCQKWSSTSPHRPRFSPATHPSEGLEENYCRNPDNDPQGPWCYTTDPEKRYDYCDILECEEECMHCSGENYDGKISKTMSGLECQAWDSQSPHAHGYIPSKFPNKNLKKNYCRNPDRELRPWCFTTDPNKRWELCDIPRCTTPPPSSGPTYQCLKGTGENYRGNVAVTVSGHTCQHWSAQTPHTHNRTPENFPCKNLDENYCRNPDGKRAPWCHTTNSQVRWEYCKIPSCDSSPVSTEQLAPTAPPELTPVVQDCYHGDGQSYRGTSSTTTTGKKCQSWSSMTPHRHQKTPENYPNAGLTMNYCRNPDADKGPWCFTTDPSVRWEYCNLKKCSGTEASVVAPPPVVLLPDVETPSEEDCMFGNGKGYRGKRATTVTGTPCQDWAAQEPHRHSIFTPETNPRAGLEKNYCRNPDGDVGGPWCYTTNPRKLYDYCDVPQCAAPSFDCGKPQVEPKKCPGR
Chain of Plasminogen (P00747 581-810 limits assumed): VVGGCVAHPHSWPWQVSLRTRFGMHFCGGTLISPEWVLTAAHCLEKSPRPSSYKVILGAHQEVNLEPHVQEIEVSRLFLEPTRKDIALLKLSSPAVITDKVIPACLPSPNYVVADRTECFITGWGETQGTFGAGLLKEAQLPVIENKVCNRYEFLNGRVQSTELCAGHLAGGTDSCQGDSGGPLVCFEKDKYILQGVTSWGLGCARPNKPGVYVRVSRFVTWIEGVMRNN

Ki [1]	Ki [2]	Ki [3]	Ki [4]	Ki [5]	Cmax [6]	Cmax [7]	SMILES
16.9 µM	3.6 µM	0.053 µM	44 µM	29 µM			CNC(=O)CCC(=O)N1CCN(C(=O)[C@H](Cc2cccc(C(=N)N)c2)NS(=O)(=O)c2cccc(NC(=O)CCN)c2)CC1
3.3 µM	1.6 µM		10 µM	0.85 µM			CNC(=O)CCCC1CCN(C(=O)[C@H](Cc2cccc(C(=N)N)c2)NS(=O)(=O)c2cccc(NC(=O)CCN)c2)CC1
2.2 µM	2.8 µM	0.017 µM	3.4 µM	0.35 µM			N=C(N)c1cccc(C[C@H](NS(=O)(=O)c2cccc(NC(=O)CCN)c2)C(=O)N2CCC(Cc3ccccc3)CC2)c1
76 µM	4.9 µM	0.1 µM	0.1 µM	24.2 µM			COC(=O)[C@H]1CCCCN1C(=O)[C@H](Cc1cccc(C(=N)N)c1)NS(=O)(=O)c1cccc(NC(=O)CCN)c1
126 µM	69.4 µM	2.4 µM	127 µM	10.6 µM			COC(=O)[C@@H]1CCCCN1C(=O)[C@H](Cc1cccc(C(=N)N)c1)NS(=O)(=O)c1cccc(NC(=O)CCN)c1
2.1 µM	2.9 µM		8.2 µM	0.67 µM			N=C(N)c1cccc(C[C@H](NS(=O)(=O)c2cccc(NC(=O)CCN)c2)C(=O)N2CCC(CCCC(N)=O)CC2)c1
3.3 µM	1.2 µM	0.013 µM	2.5 µM	1.25 µM			N=C(N)c1cccc(C[C@H](NS(=O)(=O)c2cccc(NC(=O)CCN)c2)C(=O)N2CCC(C(N)=O)CC2)c1
2.6 µM	3.3 µM	0.033 µM	10 µM	0.27 µM			N=C(N)c1cccc(C[C@H](NS(=O)(=O)c2cccc(NC(=O)CCN)c2)C(=O)N2CCCCC2)c1
0.88 µM	2.56 µM	0.037 µM	2.1 µM	71.7 µM			N=C(N)c1cccc(C[C@H](NS(=O)(=O)c2cccc(NC(=O)CCN)c2)C(=O)N2CCNCC2)c1
34.5 µM	4.5 µM	0.47 µM	17 µM	0.395 µM			CC1CCCCN1C(=O)[C@H](Cc1cccc(C(=N)N)c1)NS(=O)(=O)c1cccc(NC(=O)CCN)c1 (some centres not stated)
3 µM	6.2 µM	0.053 µM	4.4 µM	0.11 µM			CC1CCN(C(=O)[C@H](Cc2cccc(C(=N)N)c2)NS(=O)(=O)c2cccc(NC(=O)CCN)c2)CC1
7.4 µM	1.3 µM		15 µM	2.1 µM			N=C(N)c1cccc(C[C@H](NS(=O)(=O)c2cccc(NC(=O)CCN)c2)C(=O)N2CCCC(C(N)=O)C2)c1 (some centres not stated)
7.3 µM	9.4 µM	0.18 µM	11 µM	2.3 µM			N=C(N)c1cccc(C[C@H](NS(=O)(=O)c2cccc(NC(=O)CCN)c2)C(=O)N2CCCC[C@@H]2C(=O)O)c1
193 µM	79 µM	11 µM	30 µM	159 µM			N=C(N)c1cccc(C[C@H](NS(=O)(=O)c2cccc(NC(=O)CCN)c2)C(=O)N2CCCC[C@H]2C(=O)O)c1
17 µM	3.3 µM		18 µM	14 µM			N=C(N)c1cccc(C[C@H](NS(=O)(=O)c2cccc(NC(=O)CCN)c2)C(=O)N2CCC(CCCC(=O)O)CC2)c1
2.5 µM	2.8 µM		6.1 µM	0.6 µM			COC(=O)CCCC1CCN(C(=O)[C@H](Cc2cccc(C(=N)N)c2)NS(=O)(=O)c2cccc(NC(=O)CCN)c2)CC1
8.37 µM	2.5 µM	0.15 µM	2.5 µM	14.5 µM			N=C(N)c1cccc(C[C@H](NS(=O)(=O)c2cccc(NC(=O)CCN)c2)C(=O)N2CCN(c3ccc(O)cc3)CC2)c1
3.3 µM	1.3 µM	0.0075 µM	19 µM	1.4 µM			N=C(N)c1cccc(C[C@H](NS(=O)(=O)c2cccc(NC(=O)CCN)c2)C(=O)N2CCN(C(=O)OCc3ccccc3)CC2)c1
9.2 µM	13.4 µM	0.065 µM	26 µM	5.1 µM			CCOC(=O)N1CCN(C(=O)[C@H](Cc2cccc(C(=N)N)c2)NS(=O)(=O)c2cccc(NC(=O)CCN)c2)CC1
					1000 nM	1100 nM	CCOC(=O)CN[C@@H](C(=O)N1CC[C@H]1C(=O)NCc1ccc(/C(N)=N\O)cc1)C1CCCCC1 [XIMELAGATRAN]
